According to patent US20240366589A1, “NHE3-BINDING COMPOUNDS AND METHODS FOR INHIBITING PHOSPHATE TRANSPORT” (Ardelyx, Inc., priority 2013, published 2024):

Legend:
Rat NHE3 = target: T1, Rat NHE3 (Rattus norvegicus, UniProt P26433); test: Cell-based NHE3 activity under prompt conditions (OK cells, BCECF pH recovery), rat NHE3; conditions: prompt conditions
T1 construct: expressed in transfected cells; host or cells: Opossum kidney (OK) cells (ATCC), electroporation
Procedure, shortened: (§1)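 Opossum kidney cells transfected with rat or human NHE3 underwent ammonium prepulse (20 mM NH4Cl, pH 7.4, 30 min) then 10 min in Na+-free buffer, room temperature.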

Human NHE3 = target: T2, Human NHE3 (Homo sapiens, UniProt P48764); test: Cell-based NHE3 activity under prompt conditions (OK cells, BCECF pH recovery), human NHE3; conditions: prompt conditions
T2 construct: expressed in transfected cells; host or cells: Opossum kidney (OK) cells (ATCC), electroporation
T2 sequence (P48764 26-834): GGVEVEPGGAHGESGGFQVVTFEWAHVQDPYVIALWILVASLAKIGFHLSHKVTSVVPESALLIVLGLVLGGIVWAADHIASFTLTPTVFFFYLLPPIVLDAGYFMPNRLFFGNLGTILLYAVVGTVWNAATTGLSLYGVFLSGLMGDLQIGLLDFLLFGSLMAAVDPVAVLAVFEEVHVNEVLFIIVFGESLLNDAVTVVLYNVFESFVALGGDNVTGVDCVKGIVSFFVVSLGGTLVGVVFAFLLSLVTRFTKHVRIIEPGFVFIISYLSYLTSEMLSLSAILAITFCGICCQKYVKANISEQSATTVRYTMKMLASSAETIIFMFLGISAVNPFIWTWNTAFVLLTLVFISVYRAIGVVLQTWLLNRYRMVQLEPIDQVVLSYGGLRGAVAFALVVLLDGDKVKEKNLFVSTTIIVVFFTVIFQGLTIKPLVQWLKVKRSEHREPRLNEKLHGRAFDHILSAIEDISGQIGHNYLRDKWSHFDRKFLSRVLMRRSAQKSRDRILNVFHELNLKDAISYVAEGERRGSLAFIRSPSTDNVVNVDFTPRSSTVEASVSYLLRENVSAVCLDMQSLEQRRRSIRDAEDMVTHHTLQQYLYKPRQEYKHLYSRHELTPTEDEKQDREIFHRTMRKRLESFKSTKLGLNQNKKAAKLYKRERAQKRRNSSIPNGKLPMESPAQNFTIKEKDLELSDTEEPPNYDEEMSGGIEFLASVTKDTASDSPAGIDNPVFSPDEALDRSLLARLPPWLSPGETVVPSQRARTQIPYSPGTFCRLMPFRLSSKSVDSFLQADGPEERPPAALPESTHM
Procedure, shortened: as §1

[1] = system: absorption of sodium from the intestinal lumen; test: Inhibition of intestinal sodium absorption: urinary sodium (uNa) 16 h after single oral dose in rats; type: in vivo, rat; conditions: oral gavage, 16 h post-dose
Procedure, shortened: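 Urinary sodium mass over the 16 h after one oral gavage dose, measured by cation-exchange ion chromatography, reported as percent of water-vehicle group; ANOVA plus Dunnett's post hoc test. Groups of six 8-week-old Sprague-Dawley rats, housed individually in metabolic cages post-dose, fed and watered freely.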

[2] = system: absorption of sodium from the intestinal lumen; test: Fecal form score (FFS) 16 h after oral dose in rats; type: in vivo, rat; conditions: oral gavage, 16 h post-dose, scale 1-5
Procedure, shortened: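 Fecal form was scored at 16 h post-dose on a 1–5 wetness scale (normal pellet to liquid stream), with two independent observations averaged across six rats per group. Animals were 8-week-old Sprague-Dawley rats given test compound or water orally in the late afternoon and kept in metabolic cages.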

[3] = system: phosphorus and calcium levels in the urine of rats; test: Urinary excretion of phosphate and calcium in rats (16 h overnight urine); type: in vivo, rat; conditions: rats, oral gavage, 16 h post-dose

T1 sequence (P26433 29-831): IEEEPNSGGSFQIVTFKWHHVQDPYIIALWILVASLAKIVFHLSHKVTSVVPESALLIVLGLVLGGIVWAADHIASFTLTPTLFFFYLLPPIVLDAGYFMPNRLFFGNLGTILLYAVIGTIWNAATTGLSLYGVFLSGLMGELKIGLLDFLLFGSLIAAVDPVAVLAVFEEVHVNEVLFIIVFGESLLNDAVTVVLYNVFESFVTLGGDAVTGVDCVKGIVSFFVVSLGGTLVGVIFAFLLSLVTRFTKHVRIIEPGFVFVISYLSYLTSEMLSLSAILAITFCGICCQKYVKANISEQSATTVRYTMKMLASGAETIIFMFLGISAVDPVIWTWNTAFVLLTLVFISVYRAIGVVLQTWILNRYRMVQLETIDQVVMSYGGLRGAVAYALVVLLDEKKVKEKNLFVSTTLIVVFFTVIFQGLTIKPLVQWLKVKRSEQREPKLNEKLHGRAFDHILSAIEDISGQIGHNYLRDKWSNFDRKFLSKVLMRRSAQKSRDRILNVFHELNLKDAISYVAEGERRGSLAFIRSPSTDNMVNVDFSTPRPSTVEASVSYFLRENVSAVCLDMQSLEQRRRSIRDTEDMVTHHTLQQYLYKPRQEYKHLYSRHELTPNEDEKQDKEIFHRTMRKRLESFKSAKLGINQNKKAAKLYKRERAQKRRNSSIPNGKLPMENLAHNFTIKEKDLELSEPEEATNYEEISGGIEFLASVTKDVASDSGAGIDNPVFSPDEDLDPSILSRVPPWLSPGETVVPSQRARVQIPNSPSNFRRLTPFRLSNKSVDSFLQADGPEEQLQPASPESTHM

Row | Prompt Rat NHE3 pIC50 (Rat NHE3) | Prompt Human NHE3 pIC50 (Human NHE3) | IC50 (Rat NHE3; read-out: Prompt Rat NHE3 pIC50 (converted)) [nM] | Compound | Urine Na % of control ([1]; dose 1 mg/kg) [%] | Urine Na % of control ([1]; dose 3 mg/kg) [%] | Urine Na % of control ([1]; dose 10 mg/kg) [%] | Fecal Form Score average ([2]; dose 1 mg/kg) | Fecal Form Score average ([2]; dose 3 mg/kg) | Fecal Form Score average ([2]; dose 10 mg/kg) | Urine P % of control ([3]; dose 1 mg/kg) [%] | Urine P % of control ([3]; dose 3 mg/kg) [%] | Urine P % of control ([3]; dose 10 mg/kg) [%]
1 | 6.20 | 6.80 | – | CN1Cc2c(Cl)cc(Cl)cc2[C@H](c2cccc(S(=O)(=O)NCCOCCOCCNC(=O)CCC(CCC(=O)NCCOCCOCCNS(=O)(=O)c3cccc([C@@H]4CN(C)Cc5c(Cl)cc(Cl)cc54)c3)(CCC(=O)NCCOCCOCCNS(=O)(=O)c3cccc([C@@H]4CN(C)Cc5c(Cl)cc(Cl)cc54)c3)NS(C)(=O)=O)c2)C1 [compound 122] | – | 30 | – | – | 2 | – | – | 87 | –
2 | 7.50 | 7.80 | – | CN1Cc2c(Cl)cc(Cl)cc2[C@H](c2cccc(S(=O)(=O)NCCOCCOCCNC(=O)CCC(CCC(=O)NCCOCCOCCNS(=O)(=O)c3cccc([C@@H]4CN(C)Cc5c(Cl)cc(Cl)cc54)c3)(CCC(=O)NCCOCCOCCNS(=O)(=O)c3cccc([C@@H]4CN(C)Cc5c(Cl)cc(Cl)cc54)c3)NC(=O)CCC(=O)O)c2)C1 [compound 123] | 49 | 12 | – | 1 | 3 | – | 124 | 88 | –
3 | – | 7.50 | 67.6 | CN1Cc2c(Cl)cc(Cl)cc2[C@H](c2cccc(S(=O)(=O)NCCOCCOCCNC(=O)CCC(CCC(=O)NCCOCCOCCNS(=O)(=O)c3cccc([C@@H]4CN(C)Cc5c(Cl)cc(Cl)cc54)c3)(CCC(=O)NCCOCCOCCNS(=O)(=O)c3cccc([C@@H]4CN(C)Cc5c(Cl)cc(Cl)cc54)c3)N(C)C)c2)C1 [compound 124] | 69 | 22 | – | 1 | 2 | – | 154 | 61 | –
4 | <5.00 | 6.55 | – | O=C(NCCCCNC(=O)NCCOCCOCCNC(=O)Nc1cccc(O[C@H]2c3ccccc3C[C@@H]2N2CCCCC2)c1)NCCOCCOCCNC(=O)Nc1cccc(O[C@H]2c3ccccc3C[C@@H]2N2CCCCC2)c1 [compound 126] | – | – | 93 | – | – | 1 | – | – | 94
5 | 8.20 | 8.30 | – | CN(C)[C@H]1Cc2c(Cl)cc(Cl)cc2[C@@H]1Oc1ccc(S(=O)(=O)NCCOCCOCCNC(=O)NCCCCNC(=O)NCCOCCOCCNS(=O)(=O)c2ccc(O[C@H]3c4cc(Cl)cc(Cl)c4C[C@@H]3N(C)C)cc2)cc1 [compound 127] | 55 | 39 | 9 | 1 | 1 | 1 | 159 | 62 | 53

Further lines, the compound ahead of its results:

Row | Compound | Prompt Rat NHE3 pIC50 (Rat NHE3) | Prompt Human NHE3 pIC50 (Human NHE3) | IC50 (Rat NHE3; read-out: Prompt Rat NHE3 pIC50 (converted)) [nM] | Urine Na % of control ([1]; dose 1 mg/kg) [%] | Urine Na % of control ([1]; dose 3 mg/kg) [%] | Urine Na % of control ([1]; dose 10 mg/kg) [%] | Fecal Form Score average ([2]; dose 1 mg/kg) | Fecal Form Score average ([2]; dose 3 mg/kg) | Fecal Form Score average ([2]; dose 10 mg/kg) | Urine P % of control ([3]; dose 1 mg/kg) [%] | Urine P % of control ([3]; dose 3 mg/kg) [%] | Urine P % of control ([3]; dose 10 mg/kg) [%]
6 | CN1Cc2c(Cl)cc(Cl)cc2[C@H](c2cccc(S(=O)(=O)N(C)CCOCCOCCNC(=O)NCCCN(CCCNC(=O)NCCOCCOCCN(C)S(=O)(=O)c3cccc([C@@H]4CN(C)Cc5c(Cl)cc(Cl)cc54)c3)CCCNC(=O)NCCOCCOCCN(C)S(=O)(=O)c3cccc([C@@H]4CN(C)Cc5c(Cl)cc(Cl)cc54)c3)c2)C1 [compound 106] | 7.00 | 7.90 | – | 98 | 76 | 20 | 1 | 2 | 4 | 124 | 39 | 64
7 | CN1Cc2c(Cl)cc(Cl)cc2[C@H](c2cccc(S(=O)(=O)NCCOCCOCCNC(=O)N(C)CCCN(CCCN(C)C(=O)NCCOCCOCCNS(=O)(=O)c3cccc([C@@H]4CN(C)Cc5c(Cl)cc(Cl)cc54)c3)CCCN(C)C(=O)NCCOCCOCCNS(=O)(=O)c3cccc([C@@H]4CN(C)Cc5c(Cl)cc(Cl)cc54)c3)c2)C1 [compound 107] | 6.90 | 8.10 | – | 88 | 55 | 28 | 1 | 1 | 4 | 106 | 66 | 59
8 | CN1Cc2c(Cl)cc(Cl)cc2[C@H](c2cccc(S(=O)(=O)NCCOCCOCCNC(=O)NCCC[N+](C)(CCCNC(=O)NCCOCCOCCNS(=O)(=O)c3cccc([C@@H]4CN(C)Cc5c(Cl)cc(Cl)cc54)c3)CCCNC(=O)NCCOCCOCCNS(=O)(=O)c3cccc([C@@H]4CN(C)Cc5c(Cl)cc(Cl)cc54)c3)c2)C1 [compound 109] | 7.40 | 8.10 | – | 64 | 52 | 28 | 1 | 2 | 4 | 65 | 51 | 52
9 | CN1Cc2c(Cl)cc(Cl)cc2[C@H](c2cccc(S(=O)(=O)NCCOCCOCCNC(=O)CCC(CCC(=O)NCCOCCOCCNS(=O)(=O)c3cccc([C@@H]4CN(C)Cc5c(Cl)cc(Cl)cc54)c3)(CCC(=O)NCCOCCOCCNS(=O)(=O)c3cccc([C@@H]4CN(C)Cc5c(Cl)cc(Cl)cc54)c3)NCc3ccc(-c4ccc(Cl)cc4)cc3)c2)C1 [compound 113] | <5.00 | <5.00 | – | – | – | 64 | – | – | 1 | – | – | 61
10 | CN(C)[C@H]1Cc2ccccc2[C@@H]1Oc1ccc(S(=O)(=O)NCCOCCOCCNC(=O)NCCCCNC(=O)NCCOCCOCCNS(=O)(=O)c2ccc(O[C@H]3c4ccccc4C[C@@H]3N(C)C)cc2)cc1 [compound 115] | <5.00 | 8.55 | – | – | – | 69 | – | – | 1 | – | – | 60
11 | CN(C)[C@H]1Cc2ccc(Cl)cc2[C@@H]1Oc1ccc(S(=O)(=O)NCCOCCOCCNC(=O)NCCCCNC(=O)NCCOCCOCCNS(=O)(=O)c2ccc(O[C@H]3c4cc(Cl)ccc4C[C@@H]3N(C)C)cc2)cc1 [compound 116] | <5.00 | 8.30 | – | – | – | 84 | – | – | 1 | – | – | 130
12 | O=C(NCCOCCOCCOCCNS(=O)(=O)c1ccc(O[C@H]2c3ccccc3C[C@@H]2N2CCCCC2)cc1)c1ccc(C(=O)NCCOCCOCCOCCNS(=O)(=O)c2ccc(O[C@H]3c4ccccc4C[C@@H]3N3CCCCC3)cc2)cc1 [compound 117] | 7.50 | 8.20 | – | – | – | 77 | – | – | 1 | – | – | 98
13 | O=C(NCCOCCOCCOCCNS(=O)(=O)c1ccc(O[C@H]2c3ccccc3C[C@@H]2N2CCCCC2)cc1)c1cccc(C(=O)NCCOCCOCCOCCNS(=O)(=O)c2ccc(O[C@H]3c4ccccc4C[C@@H]3N3CCCCC3)cc2)c1 [compound 118] | 7.40 | 8.10 | – | – | – | 83 | – | – | 1 | – | – | 131
14 | CC(C)(C(=O)NCCOCCOCCOCCNS(=O)(=O)c1ccc(O[C@H]2c3ccccc3C[C@@H]2N2CCCCC2)cc1)C(=O)NCCOCCOCCOCCNS(=O)(=O)c1ccc(O[C@H]2c3ccccc3C[C@@H]2N2CCCCC2)cc1 [compound 119] | 8.70 | 7.80 | – | – | – | 43 | – | – | 1 | – | – | 52
